From patent US8076487B2, “Pyridone derivative and herbicide” (Kumiai Chemical Industry Co., Ltd., priority 2006, dated 2011)

How the values were obtained:
Type in all cases: in vivo
[1] = system: green foxtail (Setaria viridis (L.) P. Beauv.); assay: Test Example 2: herbicidal effect by soil application to upland field; conditions: soil surface spray, upland field soil, 1,000 g active ingredient per hectare, 21st day after application
Method in brief: (§1)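 A standard visual rating of herbicidal effect, made 21 days after treatment, gives the value. Treatment consisted of a uniform spray of water-diluted wettable powder on the soil covering newly sown seeds, equivalent to 1,000 g active ingredient and 1,000 liters per hectare.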

[2] = system: velvetleaf (Abutilon theophrasti medicus); assay: as above; conditions: soil surface spray, upland field soil, 1,000 g active ingredient per hectare, 21st day after application
Method in brief: as §1

[3] = system: barnyardgrass (Echinochloa crus-galli (L.) P. Beauv. var. crus-galli); assay: as above; conditions: soil surface spray, upland field soil, 1,000 g active ingredient per hectare, 21st day after application
Method in brief: as §1

[4] = system: slender amaranth (Amaranthus viridis L.); assay: as above; conditions: soil surface spray, upland field soil, 1,000 g active ingredient per hectare, 21st day after application
Method in brief: as §1

[5] = system: early watergrass (Echinochloa oryzicola Vasing); assay: Test Example 1: herbicidal effect by soil application to paddy field; conditions: paddy field soil application; active ingredient 1,000 g per 1 hectare; wettable powder added dropwise to water surface the day after sowing; examined on the 21st day after application
Method in brief: (§2)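 Under greenhouse conditions, seeds sown on puddled paddy soil in 100 cm2 pots under 3 cm of standing water received the test compound; injury was assessed with a standard scoring scheme three weeks (day 21) after treatment.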

[6] = system: Japanese bulrush (Scirpus juncoides Roxb.); assay: as above; conditions: paddy field soil application; active ingredient 1,000 g per 1 hectare; wettable powder added dropwise to water surface the day after sowing; examined on the 21st day after application
Method in brief: as §2

[7] = system: heartshape false pickerelweed (Monochoria vaginalis (Burm.f.) C.Presl); assay: as above; conditions: paddy field soil application; active ingredient 1,000 g per 1 hectare; wettable powder added dropwise to water surface the day after sowing; examined on the 21st day after application
Method in brief: as §2

[8] = system: green foxtail (Setaria viridis (L.) P. Beauv.); assay: Test Example 3: herbicidal effect by application to upland field (foliage treatment); conditions: 14th day after application; for herbicidal effect (index), Green Foxtail: foliage treatment, plants grown two weeks, 1,000 g active ingredient per hectare
Method in brief: (§3)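 Dose 1,000 g active ingredient/ha, sprayed as diluted wettable powder over entire plants two weeks after sowing in field soil. Kept in greenhouse; herbicidal effect graded on a standard scale on day 14.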

[9] = system: velvetleaf (Abutilon theophrasti medicus); assay: as above; conditions: 14th day after application; for herbicidal effect (index), Velvetleaf: foliage treatment, plants grown two weeks, 1,000 g active ingredient per hectare
Method in brief: as §3

[10] = system: barnyardgrass (Echinochloa crus-galli (L.) P. Beauv. var. crus-galli); assay: as above; conditions: 14th day after application; for herbicidal effect (index), Barnyardgrass: foliage treatment, plants grown two weeks, 1,000 g active ingredient per hectare
Method in brief: as §3

[11] = system: slender amaranth (Amaranthus viridis L.); assay: as above; conditions: 14th day after application; for herbicidal effect (index), Slender Amaranth: foliage treatment, plants grown two weeks, 1,000 g active ingredient per hectare
Method in brief: as §3

[12] = foliage treatment, 1,000 g active ingredient per 1 hectare, greenhouse

Row | Compound | herbicidal effect (index), Green Foxtail [1] | herbicidal effect (index), Velvetleaf [2] | herbicidal effect (index), Barnyardgrass [3] | herbicidal effect (index), Slender Amaranth [4] | herbicidal effect, Echinochloa oryzicola Vasing [5] | herbicidal effect, Scirpus juncoides Roxb. [6] | herbicidal effect, Monochoria vaginalis (Burm. f.) C. Presl [7] | herbicidal effect (index), Green Foxtail [8] | herbicidal effect (index), Velvetleaf [9] | herbicidal effect (index), Barnyardgrass [10] | herbicidal effect (index), Slender Amaranth [11] | herbicidal effect, Green Foxtail [8, 12] | herbicidal effect, Velvetleaf [9, 12] | herbicidal effect, Barnyardgrass [10, 12] | herbicidal effect, Slender Amaranth [11, 12]
1 | COCC(C)n1c(C(F)(F)F)ccc(C(=O)C2=C(O)CCCC2=O)c1=O (stereo not drawn) [I-33] | 3 (50 to less than 70% of herbicidal effect and crop phytotoxicity) | 5 (90% or more of herbicidal effect and crop phytotoxicity) | 5 (90% or more of herbicidal effect and crop phytotoxicity) | 5 (90% or more of herbicidal effect and crop phytotoxicity) | 5 (90% or more of herbicidal effect and crop phytotoxicity) | 5 (90% or more of herbicidal effect and crop phytotoxicity) | 5 (90% or more of herbicidal effect and crop phytotoxicity) | 4 (70 to less than 90% of herbicidal effect and crop phytotoxicity) | 5 (90% or more of herbicidal effect and crop phytotoxicity) | 5 (90% or more of herbicidal effect and crop phytotoxicity) | 5 (90% or more of herbicidal effect and crop phytotoxicity) |  |  |  | 
2 | CC(C)n1c(C(F)(F)F)ccc(C(=O)C2=C(O)CCCC2=O)c1=O [I-4] | 4 (70 to less than 90% of herbicidal effect and crop phytotoxicity) | 5 (90% or more of herbicidal effect and crop phytotoxicity) | 5 (90% or more of herbicidal effect and crop phytotoxicity) | 5 (90% or more of herbicidal effect and crop phytotoxicity) | 5 (90% or more of herbicidal effect and crop phytotoxicity) | 5 (90% or more of herbicidal effect and crop phytotoxicity) | 5 (90% or more of herbicidal effect and crop phytotoxicity) | 3 (50 to less than 70% of herbicidal effect and crop phytotoxicity) | 5 (90% or more of herbicidal effect and crop phytotoxicity) | 5 (90% or more of herbicidal effect and crop phytotoxicity) | 5 (90% or more of herbicidal effect and crop phytotoxicity) |  |  |  | 
3 | CCCS(=O)(=O)Oc1c(C(=O)c2ccc(C(F)(F)F)n(-c3ccc(OC)c(F)c3)c2=O)cnn1C [IV-93] | 4 (70 to less than 90% of herbicidal effect and crop phytotoxicity) | 5 (90% or more of herbicidal effect and crop phytotoxicity) | 5 (90% or more of herbicidal effect and crop phytotoxicity) | 5 (90% or more of herbicidal effect and crop phytotoxicity) | 5 (90% or more of herbicidal effect and crop phytotoxicity) | 5 (90% or more of herbicidal effect and crop phytotoxicity) | 5 (90% or more of herbicidal effect and crop phytotoxicity) |  |  |  |  | 4 (70 to less than 90% of herbicidal effect and crop phytotoxicity) | 4 (70 to less than 90% of herbicidal effect and crop phytotoxicity) | 4 (70 to less than 90% of herbicidal effect and crop phytotoxicity) | 5 (90% or more of herbicidal effect and crop phytotoxicity)
